Laboratory results reported in article PMC10489817, “2-Alkyl-Substituted-4-Amino-Thieno[2,3-d]Pyrimidines: Anti-Proliferative Properties to In Vitro Breast Cancer Models” (Molecules, 2023).
Several values for one entry are separate records, joined by “and”; a condition that tells them apart may be missing. Equal values may be shown once. Read-outs that look alike come from different tables or passages of the source. Values belong to the compound of their own block, whether it stands above or below them.

Experiments:
MCF-10A [1] = test: MTT anti-proliferative test, MCF-10A; type: cell-based; conditions: Homo sapiens
From the text: (§1) The MCF-10A cell line (normal human mammary epithelial cells) served as a reference control.
(§2) All breast cell lines (MCF-10A, MCF-7, and MDA-MB-231) were purchased from the American Type Culture Collection—ATCC (Manassas, VA, USA). The MCF-7 and MDA-MB-231 were cultivated in Dulbecco’s modified Eagle’s medium (DMEM) and supplemented with 10% fetal bovine serum (FBS), 1% sodium pyruvate, and 1% MEM non-essential amino acids (NEAA) without antibiotics. The non-tumorigenic breast cell line (MCF-10A) was cultivated in DMEM medium (Sigma-Aldrich, St. Louis, MO, USA) and supplemented with 10% FBS, 1% sodium pyruvate, 1% non-essential amino acids (NEAA), 20 ng/mL human epithelia growth factor (hEGF), 10 μg/mL insulin, and 0.5 μg/mL hydrocortisone without antibiotics. All cell lines were maintained in a humidified atmosphere, with 5% CO2 at 37 °C.
(§3) Using the standard MTT-dye reduction assay described by Mosmann, the anti-proliferative activity was tested. The method is based on the metabolism of the tetrazolium salt MTT to insoluble formazan. The formazan absorption was registered using a microplate reader at λ = 540 nm. The measured absorption is an indicator of cell viability and metabolic activity. Anti-proliferative activities were expressed as IC50 values (concentrations required for 50% inhibition of cell growth), calculated using non-linear regression analysis (GraphPad Software, San Diego, CA, USA).

MCF-7 [2] = test: MTT anti-proliferative test, MCF-7; type: cell-based, human; conditions: for SI (selective index) MCF-7: IC50 MCF-10A/IC50 MCF-7
From the text: as §1, §2, §3

MCF-10A [3] = test: Cell cycle analysis by propidium iodide staining, MCF-10A; type: cell-based, human; conditions: for change of %G1 vs control, MCF-10A / change of %G2 vs control, MCF-10A / change of %S vs control, MCF-10A: control = 100%, 24 h; for %G1, MCF-10A / %G2, MCF-10A / %S, MCF-10A: treated at IC50, 24 h
Experimental: (§4) Our study continued with the examination of the effect of the newly synthesized compounds’ IC50 values on cell cycle progression. The cell aliquots were collected, and FACS analyses were used to detect the effects of cell treatments with the selected compounds (2, 4, and 5). A propidium iodide staining assay was performed.
(§5) The changes in the cell cycle distribution in % (G1, S, and G2 phases), based on the graphical figures A–C, were calculated and are given in Table 4.
(§6) The cells were trypsinized, suspended in medium + 10% FCS, and centrifuged (1000 rpm, 5 min); then, the pellet was suspended in PBS (1 mL) and fixed with EtOH. The cells were suspended in 2.5 mL pre-cold 70% EtOH and incubated on ice for 15 min. The staining procedure was as follows: the pellet was suspended in a 500 μL PI-solution in PBS and 0.1 mg/mL RNase A, and 0.05% Triton X-100 was added. After incubation for 10 min at 37 °C, the cells were transferred to the flow cytometer and cell fluorescence was measured. The samples were measured by flow cytometry (LSR II, BD Biosciences, Franklin Lakes, NJ, USA) and analyzed using BD FACS DIVA software v. 6.1.3 (BD Biosciences).

MCF-7 [4] = test: Cell cycle analysis by propidium iodide staining, MCF-7; type: cell-based, human; conditions: for cell cycle arrest phase, MCF-7: ER positive cell line; for change of %G1 vs control, MCF-7 / change of %G2 vs control, MCF-7 / change of %S vs control, MCF-7: control = 100%, 24 h; for %G1, MCF-7 / %G2, MCF-7 / %S, MCF-7: treated at IC50, 24 h
Experimental: as §4, §5, §6

MCF-7 [5] = test: ζ-potential measurement, MCF-7; type: cell-based, human; conditions: PBS pH 7.4, 37 °C; more negative after treatment
Experimental: (§7) First, the ζ-potential of each cell line was measured, and all obtained values were negative (Figure 6A). The Student t-test statistical analysis which was applied distinguished the ζ-potentials of the three studied cell lines with p < 0.05, and the values followed the order of MCF-7 > MDA-MB-231 > MCF-10A. […] represents the relative percentage change of the ζ-potential induced by the studied compounds for the different cell lines. Compound 2 was able to decrease the ζ-potential of the cells with the following ranking: MCF-7 (42%) > MCF-10A (24%) > MDA-MB-231 (16%). For compound 4, the ranking was as follows: MCF-10A (50%) > MDA-MB-231 (46%) > MCF-7 (3%). For compound 5, this was MCF-10A (36%) > MCF-7 (22%) > […].
(§8) The zeta (ζ ξ) potential is the electrostatic potential at the shear plane of a cell, and is related to both its surface charge and the local environment. The ζ-potential of the intact cells and the treated ones was recorded in a cell suspension (0.5 × 10^6 cells/mL) in PBS, using the electrophoretic light-scattering technique on a Zetasizer Nano ZS analyzer (Malvern Instruments, Great Britain). Laser Doppler electrophoresis and velocimetry of cells were used to determine the ζ-potential by measuring the speeds of the cells in PBS upon the application of an electric field. The ζ-potential was calculated based on the Helmholtz–Smoluchowski equation. The measurements were performed in a U-shaped cell with gold-plated electrodes at 37 °C.
(§9) Figure 6 ζ-potential of the investigated cell lines, MCF-10A, MCF-7, and MDA-MB-231 (A). Alterations in the ζ-potential after treatment with compounds 2 (pink), 4 (blue), and 5 (green) (B). All zeta potential values were measured in PBS buffer (137 mM NaCl, 2.7 mM KCl, 8 mM Na2HPO4, and 2 mM KH2PO4; pH 7.4) at 37 °C. Two independent experiments were carried out for each cell line, and each sample was measured 6 times. (*; ***) denote p < 0.05 and p < 0.001 as follows. […]

MDA-MB-231 = test: ζ-potential measurement, MDA-MB-231; type: cell-based, human; conditions: PBS pH 7.4, 37 °C; more negative after treatment
Experimental: as §7, §8, §9

[6] = read-out: IC50 MCF-10A (converted)
[7] = read-out: IC50 of Mean ± SD, Anti-Proliferative Activity MCF-10A
[8] = Homo sapiens, MCF7, MTT, read-out: IC50 MCF-7 (converted)
[9] = Homo sapiens, MCF7, MTT, read-out: IC50 of Mean ± SD, Anti-Proliferative Activity MCF-7
[10] = MTT, read-out: IC50 MCF-7 (converted)

IC50 (MCF-7 [2]; [8]): 100 µM
IC50 (MCF-7 [2]; [9]): 28.9 ± 2.1 µg/mL
IC50 (MCF-7 [2]; [10]): 110 µM
SMILES: CCOC(=O)c1sc2nc(CC)nc(N)c2c1C [Compound 4, Ethyl 4-Amino-2-Ethyl-5-Methylthieno[2,3-d]Pyrimidine-6-Carboxylate]
IC50 (MCF-10A [1]; [6]): 1400 µM
IC50 (MCF-10A [1]; [7]): 367 ± 17.8 µg/mL
SI (selective index) MCF-7 (MCF-7 [2]): 12.7
change of %G1 vs control, MCF-10A (MCF-10A [3]): +4.9%
change of %G2 vs control, MCF-10A (MCF-10A [3]): +15.4%
change of %S vs control, MCF-10A (MCF-10A [3]): −29.0%
%G1, MCF-10A (MCF-10A [3]): 85.5%
%G2, MCF-10A (MCF-10A [3]): 8.108%
%S, MCF-10A (MCF-10A [3]): 6.53%
cell cycle arrest phase, MCF-7 (MCF-7 [4]): arrest was detected in the G1 phase
change of %G1 vs control, MCF-7 (MCF-7 [4]): +20%
change of %G2 vs control, MCF-7 (MCF-7 [4]): −22.55%
change of %S vs control, MCF-7 (MCF-7 [4]): −8.35%
%G1, MCF-7 (MCF-7 [4]): 48.5%
%G2, MCF-7 (MCF-7 [4]): 7.769%
%S, MCF-7 (MCF-7 [4]): 39.5%
Δζ/ζ relative change of ζ-potential, MCF-7 (MCF-7 [5]): 3.35% and 3%
Δζ/ζ relative change of ζ-potential, MDA-MB-231 (MDA-MB-231): 45.51% and 46%

IC50 (MCF-7 [2]; [8]): 300 µM
IC50 (MCF-7 [2]; [9]): 83.1 ± 7.3 µg/mL
IC50 (MCF-7 [2]; [10]): 260 µM
SMILES: CCOC(=O)Cc1nc(N)c2c(C)c(C(=O)OCC)sc2n1 [Compound 2, Ethyl 4-Amino-2-(2-Ethoxy-2-Oxoethyl)-5-Methylthieno[2,3-d]Pyrimidine-6-Carboxylate]
IC50 (MCF-10A [1]; [6]): 1700 µM
IC50 (MCF-10A [1]; [7]): 503 ± 16.7 µg/mL
SI (selective index) MCF-7 (MCF-7 [2]): 6.1
change of %G1 vs control, MCF-10A (MCF-10A [3]): +5.439%
change of %G2 vs control, MCF-10A (MCF-10A [3]): −6.42%
change of %S vs control, MCF-10A (MCF-10A [3]): −20.8%
%G1, MCF-10A (MCF-10A [3]): 85.9%
%G2, MCF-10A (MCF-10A [3]): 6.55%
%S, MCF-10A (MCF-10A [3]): 7.328%
cell cycle arrest phase, MCF-7 (MCF-7 [4]): arrest was detected in the G1 phase
change of %G1 vs control, MCF-7 (MCF-7 [4]): +11.1%
change of %G2 vs control, MCF-7 (MCF-7 [4]): +7.75%
change of %S vs control, MCF-7 (MCF-7 [4]): −7.65%
%G1, MCF-7 (MCF-7 [4]): 44.9%
%G2, MCF-7 (MCF-7 [4]): 10.7%
%S, MCF-7 (MCF-7 [4]): 39.8%
Δζ/ζ relative change of ζ-potential, MCF-7 (MCF-7 [5]): 42.14% and 42%
Δζ/ζ relative change of ζ-potential, MDA-MB-231 (MDA-MB-231): 16.04% and 16%

IC50 (MCF-7 [2]; [8]): 100 µM
IC50 (MCF-7 [2]; [9]): 35.5 ± 1.5 µg/mL
IC50 (MCF-7 [2]; [10]): 140 µM
SMILES: CCOC(=O)c1sc2nc(C)nc(N)c2c1C [Compound 5, Ethyl 4-Amino-2,5-Dimethyl-Thieno[2,3-d]Pyrimidine-6-Carboxylate]
IC50 (MCF-10A [1]; [6]): 2500 µM
IC50 (MCF-10A [1]; [7]): 618 ± 29.7 µg/mL
SI (selective index) MCF-7 (MCF-7 [2]): 17.4
change of %G1 vs control, MCF-10A (MCF-10A [3]): +5.52%
change of %G2 vs control, MCF-10A (MCF-10A [3]): +24.657%
change of %S vs control, MCF-10A (MCF-10A [3]): −13.9%
%G1, MCF-10A (MCF-10A [3]): 86%
%G2, MCF-10A (MCF-10A [3]): 8.72%
%S, MCF-10A (MCF-10A [3]): 7.92%
cell cycle arrest phase, MCF-7 (MCF-7 [4]): arrest was detected in the G1 phase
change of %G1 vs control, MCF-7 (MCF-7 [4]): +20.54%
change of %G2 vs control, MCF-7 (MCF-7 [4]): −15.7%
change of %S vs control, MCF-7 (MCF-7 [4]): −10.2%
%G1, MCF-7 (MCF-7 [4]): 48.7%
%G2, MCF-7 (MCF-7 [4]): 8.40%
%S, MCF-7 (MCF-7 [4]): 38.7%
Δζ/ζ relative change of ζ-potential, MCF-7 (MCF-7 [5]): 22.27% and 22%
Δζ/ζ relative change of ζ-potential, MDA-MB-231 (MDA-MB-231): 23.31% and 23%
